Assay results as given in paper PMC4569848 (Nature Communications, 2015).
“Also recorded” adds a separate entry of the source. No end group written: not given here. *: point of attachment. sulfate = O=S(=O)(O)*

Experiments:
Type in all cases: cell-based
β2AR [1] = assay: Intramolecular BRET of Luc-β-arrestin-1-YFP (arrestin conformational change); details: HEK293 cells, 10 μM ISO, 10 min
Description: (a) Activation of β2-AR-induced conformational changes in β-arrestin-1 as measured using intramolecular BRET. Plasmids encoding a β-arrestin-1 BRET biosensor (Luc-β-arrestin-1-YFP) and Flag-β2-AR were transiently co-transfected in HEK293 cells. After starvation, the cells were stimulated with ISO (10 μM) for 10 min. The effects of GRK phosphorylation of β2-AR on ISO-induced β-arrestin-1 conformational change were probed using siRNA-mediated GRK knockdown.
The pcDNA3.0-Flag-β2AR (Flag-β2AR), β-arrestin-1-YFP, pcDNA3.1-Luc-β-arrestin-2-YFP and pCDNA3.1-Clathrin constructs were generous gifts from Dr Lefkowitz at Duke University[21][32]. […] To monitor the β-arrestin-1 conformational change, the BRET sensor for β-arrestin-1 (pcDNA3.1-Luc-β-arrestin-1-YFP) was created by in-Fusion of the β-arrestin-1-YFP plasmid with the pcDNA3.1-Luc-β-arrestin-2-YFP construct[57][58]. […] All of the constructs and mutations were verified by DNA sequencing.
HEK 293 cells were attained from ATCC and cultured at 37 °C and 5% CO2 in DMEM containing 10% (v/v) fetal bovine serum and penicillin–streptomycin (5,000 IU l^−1). GRK2 or GRK6 expression was silenced in HEK 293 cells using a specific small interfering RNA (siRNA) duplex.

β2AR [2] = assay: Co-IP β-arrestin-1/SRC downstream of β2AR; details: HEK293, 10 μM ISO, 15 min, β-arrestin-1 R7A (site 5) vs wild type
Description: (§3) (a) The phospho-binding pattern of β-arrestin-1 determines selective arrestin functions downstream of β2AR in cells. […] The β-arrestin-1 was immunoprecipitated by HA-antibody-conjugated agarose and the formation of the β-arrestin-1/clathrin or β-arrestin-1/SRC was detected by specific clathrin or SRC antibodies. […] (a–c) Representative western blottings from at least three experiments are shown on the left and the statistics from at least three independent experiments are shown on the right. *P<0.05, **P<0.01; the effects of mutants were compared with the wild type.
(§4) To examine the effects of β-arrestin-1 mutants on ISO, CCK-8s or somatostatin induced clathrin/β-arrestin-1 or SRC/β-arrestin-1 complex formation downstream of β2AR, CCKAR and SSTR2; HEK293 cells were co-transfected with Flag-β2AR/HA-β-arrestin-1, Flag-CCKAR/HA-β-arrestin-1 or Flag-SSTR2/HA-β-arrestin-1, respectively. Different HA-β-arrestin-1 mutations were used to detect the contribution of the phosphate-binding sites of β-arrestin-1 during the arrestin/clathrin or arrestin/SRC complex formatin. […] Immune complexes were analysed by western blotting with specific antibody towards clathrin or pSRC416, respectively.Representative western blots from at least three experiments are shown in Fig. 8.

β2AR [3] = assay: Co-IP β-arrestin-1/clathrin downstream of β2AR; details: HEK293, 10 μM ISO, 15 min, β-arrestin-1 R25A (site 4) vs wild type
Description: as §3, §4

β2AR [4] = assay: Western blot of SRC activation (phospho-SRC 416); details: HEK293 cells, ISO 1, 5 and 15 min
Description: (b) A representative western blotting is shown for the effects of knockdown of specific GRKs in β2-AR-mediated proto-oncogene tyrosine-protein kinase (SRC) activation. Left panel: HEK293 cells that were transiently transfected with Flag-β2-AR were stimulated with ISO for 1, 5 and 15 min. To examine the roles of GRK2 and GRK6 in β2-AR-mediated SRC activation, siRNAs that were selective for specific GRKs were transfected into the cells. A western blot representative of at least three independent experiments is shown on the left. Right panel: western blot signals of phospho-SRC 416 (a) were quantified using densitometry and are expressed as fold change versus basal level. […] (a,b) At least three independent experiments were performed. #P<0.05, ISO-stimulated cells are compared with unstimulated cells. *P<0.05; **P<0.01; ***P<0.005; GRK siRNA-treated cells are compared with control siRNA-treated cells.
GRK2 or GRK6 expression was silenced in HEK 293 cells using a specific small interfering RNA (siRNA) duplex. […]
To examine the roles of GRK2 and GRK6 in β2-AR-mediated SRC activation, selective siRNA towards specific GRK and Flag-β2AR plasmids were co-transfected into HEK-293 cells. […] Lysate protein concentrations were determined using the Bradford protein assay. […] SRC-416 phosphorylation was detected using a specific antibody.

β2AR [5] = tested on: β2AR
Description: To examine the effects of β-arrestin-1 mutants on ISO-induced β2AR/β-arrestin-1 complex formation, the co-immunoprecipitation experiment was performed[61][62]. In detail, HEK293 cells were co-transfected with Flag-β2AR and β-arrestin-1-YFP mutants. Twenty-four hours after transfection, the cells were starved for 4 h and then stimulated with ISO (10 μM) for 10 min. The cell lysates were subjected to immunoprecipitation using anti-FLAG beads incubated overnight at 4 °C. Immune complexes were analysed by western blotting with specific antibodies. The associated β-arrestin 1-YFP was detected using an anti-YFP antibody.

CCKAR [6] = assay: Co-IP β-arrestin-1/clathrin downstream of CCKAR; details: HEK293, 2 μM CCK-8s
Description: (§1) Figure 8 Phospho-pattern-selective mechanisms of specific arrestin functions are common for at least a subset of GPCRs. (a) The phospho-binding pattern of β-arrestin-1 determines selective arrestin functions downstream of β2AR in cells. HEK293 cells were co-transfected with Flag-β2AR and wild-type HA-β-arrestin-1 or specific phosphate-binding site mutants (R25A for site 4 and R7A for site 5), then stimulated with 10 μM isoproterenol (ISO) for 15 min. The β-arrestin-1 was immunoprecipitated by HA-antibody-conjugated agarose and the formation of the β-arrestin-1/clathrin or β-arrestin-1/SRC was detected by specific clathrin or SRC antibodies. […] (b,c) The phospho-binding pattern of β-arrestin-1 determines selective arrestin interaction with clathrin or SRC downstream of somatostatin receptor 2 (SSTR2, Fig. 4c) and cholecystokinin A receptor (CCKAR, Fig. 4d). […]
(§2) To examine the effects of β-arrestin-1 mutants on ISO, CCK-8s or somatostatin induced clathrin/β-arrestin-1 or SRC/β-arrestin-1 complex formation downstream of β2AR, CCKAR and SSTR2; HEK293 cells were co-transfected with Flag-β2AR/HA-β-arrestin-1, Flag-CCKAR/HA-β-arrestin-1 or Flag-SSTR2/HA-β-arrestin-1, respectively. […] Immune complexes were analysed by western blotting with specific antibody towards clathrin or pSRC416, respectively.Representative western blots from at least three experiments are shown in Fig. 8.

CCKAR [7] = assay: Co-IP β-arrestin-1/SRC downstream of CCKAR; details: HEK293, 2 μM CCK-8s, 15 min
Description: as §1, §2

SSTR2 [8] = assay: Co-IP β-arrestin-1/clathrin downstream of SSTR2; details: HEK293, 1 μM somatostatin
Description: as §1, §2

SSTR2 [9] = assay: Co-IP β-arrestin-1/SRC downstream of SSTR2; details: HEK293, 1 μM somatostatin
Description: as §1, §2

**Q.** Which “BRET signal of Rluc-β-arrestin-1-YFP” value (β2AR [1]; Flag-β2AR) does the source give for `CC(C)NCC(O)c1ccc(O)c(O)c1` (stereo not drawn) [ISO, isoproterenol] here?
**A.** significantly increased the BRET signal

**Q.** What about the “BRET signal of Rluc-β-arrestin-1-YFP, GRK2 knockdown” value (β2AR [1]; GRK2 siRNA) of the same molecule?
**A.** significantly reduced by the knockdown of either GRK2 or GRK6

**Q.** What about the “BRET signal of Rluc-β-arrestin-1-YFP, GRK6 knockdown” value (β2AR [1]; GRK6 siRNA) of the same molecule?
**A.** significantly reduced by the knockdown of either GRK2 or GRK6

**Q.** What about the “β-arrestin-1/SRC complex formation, R7A” value (β2AR [2]) of the same molecule?
**A.** specifically eliminated ISO-induced β-arrestin-1/SRC association; also recorded: the ISO-induced β-arrestin-1/SRC complex formation

**Q.** What about the “β-arrestin-1/clathrin complex formation, R25A” value (β2AR [3]) of the same molecule?
**A.** selectively impaired β-arrestin-1/clathrin interaction downstream of β2AR activation; also recorded: selectively disrupted the ISO-induced β-arrestin-1/clathrin complex formation

**Q.** And the “SRC activation, role of GRK2 (knockdown)” value (β2AR [4]; GRK2 siRNA)?
**A.** GRK2 is a negative regulator of β2-AR-induced SRC activation

**Q.** What about the “SRC activation, role of GRK6 (knockdown)” value (β2AR [4]; GRK6 siRNA) of the same molecule?
**A.** GRK6 is required for SRC activation downstream of β2-AR activation

**Q.** What about the “β2AR/β-arrestin-1 complex formation with β-arrestin-1 mutants” value (β2AR [5]) of the same molecule?
**A.** All of the tested β-arrestin-1 mutants bound to β2AR after ISO stimulation

**Q.** “CCK-8s: CCKAR agonist, 2 μM (DY(sulfate)MGWMDF; ends and bridges not checked; UniProt P06307 96-103, looked up)” was tested. Which β-arrestin-1/clathrin interaction (CCKAR [6]; 15 min) did it give?
**A.** only promoted β-arrestin-1/clathrin interaction

**Q.** What about the “β-arrestin-1/clathrin interaction, R25A” value (CCKAR [6]; β-arrestin-1 R25A vs wild type) of the same molecule?
**A.** selectively disrupted β-arrestin-1/clathrin interaction

**Q.** And the β-arrestin-1/SRC recruitment (CCKAR [7])?
**A.** only promoted β-arrestin-1/clathrin interaction

**Q.** With somatostatin as the molecule, how does the β-arrestin-1/clathrin recruitment (SSTR2 [8]; 15 min) read?
**A.** promoted both clathrin and SRC recruitment for β-arrestin-1

**Q.** What about the “β-arrestin-1/clathrin interaction, R25A” value (SSTR2 [8]; β-arrestin-1 R25A vs wild type) of the same molecule?
**A.** selectively disrupted β-arrestin-1/clathrin interaction

**Q.** And the β-arrestin-1/SRC recruitment (SSTR2 [9]; 15 min)?
**A.** promoted both clathrin and SRC recruitment for β-arrestin-1

**Q.** And the “β-arrestin-1/SRC complex formation, R7A” value (SSTR2 [9]; β-arrestin-1 R7A vs wild type)?
**A.** impaired the β-arrestin-1/SRC complex formation
